Where “and” joins values, the source holds several entries; their conditions need not be identical. Equal entries are not always repeated. Inconclusive results and toxic doses are left out.
Tested on: P388 leukemia ip, CD2F1 mice, survival T/C
Experiment: NCI In Vivo Anticancer Drug Screen. Data for tumor model P388 Leukemia (intraperitoneal) in CD2F1 (CDF1) mice
Details: endpoint: median survival time, higher = longer survival
Method in brief: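 Mice carrying the transplanted tumor received test compound or vehicle. Survival was recorded in each group, and the value is the treated-group measurement divided by that of the vehicle-treated control group.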

[1] = dose: 50.0 mg/kg/injection, schedule: Q01DX009 (ip), vehicle: Klucel (hydroxypropylcellulose) (HPC)
[2] = dose: 100.0 mg/kg/injection, schedule: Q01DX009 (ip), vehicle: Klucel (hydroxypropylcellulose) (HPC)
[3] = dose: 12.5 mg/kg/injection, schedule: Q01DX009 (ip), vehicle: saline with Tween-80
[4] = dose: 60.0 mg/kg/injection, schedule: Q01DX005 (ip), vehicle: saline with Tween-80
[5] = dose: 120.0 mg/kg/injection, schedule: Q01DX005 (ip), vehicle: saline with Tween-80

## Cn1cnc2ncnc(NCc3ccccc3Cl)c21
dose: 6.25 mg/kg/injection, schedule: Q04DX003 (ip), vehicle: saline with Tween-80
  T/C: 93 % of control
dose: 12.5 mg/kg/injection, schedule: Q04DX003 (ip), vehicle: saline with Tween-80
  T/C: 94 % of control
dose: 25.0 mg/kg/injection, schedule: Q04DX003 (ip), vehicle: saline with Tween-80
  T/C: 94 % of control
dose: 50.0 mg/kg/injection, schedule: Q04DX003 (ip), vehicle: saline with Tween-80
  T/C: 91 % of control

## O=C(NCc1ccc(Cl)cc1)OCc1c2ccccc2cc2ccccc12
[1]
  T/C: 95 % of control
[2]
  T/C: 93 % of control

## C=CCN1C(=O)CSC1=S
[2]
  T/C: 100 % of control
dose: 200.0 mg/kg/injection, schedule: Q01DX009 (ip), vehicle: Klucel (hydroxypropylcellulose) (HPC)
  T/C: 108 % of control
dose: 400.0 mg/kg/injection, schedule: Q01DX009 (ip), vehicle: Klucel (hydroxypropylcellulose) (HPC)
  T/C: 110 % of control

## O=C(O)c1ccc(N2C(=O)C3C4CCC(O4)C3C2=O)cc1 (stereo not given)
dose: 6.25 mg/kg/injection, schedule: Q01DX005 (ip), vehicle: saline with Tween-80
  T/C: 101 % of control
dose: 12.5 mg/kg/injection, schedule: Q01DX005 (ip), vehicle: saline with Tween-80
  T/C: 101 % of control

## CC1=C(/C=C/C(C)=N/NC(N)=S)C(C)(C)CCC1
dose: 6.25 mg/kg/injection, schedule: Q01DX009 (ip), vehicle: saline with Tween-80
  T/C: 100 % of control
[3]
  T/C: 115 % of control

## CSc1nc(NC2OCC(O)C(O)C2O)c(C=O)c(=O)n1C (stereo not given)
[4]
  T/C: 96 % of control
[5]
  T/C: 97 % of control

## C[n+]1ccc(I)c2ccc(Cl)cc21
dose: 12.5 mg/kg/injection, schedule: Q01DX009 (ip), vehicle: Klucel (hydroxypropylcellulose) (HPC)
  T/C: 101 % of control
dose: 25.0 mg/kg/injection, schedule: Q01DX009 (ip), vehicle: Klucel (hydroxypropylcellulose) (HPC)
  T/C: 104 % of control
[1]
  T/C: 109 % of control

## NC(CSS(=O)(=O)O)C(=O)O (stereo not given)
dose: 50.0 mg/kg/injection, schedule: Q01DX005 (ip), vehicle: saline
  T/C: 101 % of control
dose: 100.0 mg/kg/injection, schedule: Q01DX005 (ip), vehicle: saline
  T/C: 106 % of control
dose: 200.0 mg/kg/injection, schedule: Q01DX005 (ip), vehicle: saline
  T/C: 101 % of control

## COC1=C(OC)C(=O)C(C)(CC=C(C)C)CC1=O (stereo not given)
dose: 13.0 mg/kg/injection, schedule: Q01DX009 (ip), vehicle: saline + alcohol
  T/C: 113 % of control
dose: 25.0 mg/kg/injection, schedule: Q01DX009 (ip), vehicle: saline + alcohol
  T/C: 113 % of control
dose: 50.0 mg/kg/injection, schedule: Q01DX009 (ip), vehicle: saline + alcohol
  T/C: 103 % of control

## Cc1n[nH]c(=O)c(N)c1-c1cc(-c2ccccc2)n[nH]1
[4]
  T/C: 91 % of control
[5]
  T/C: 94 % of control
dose: 240.0 mg/kg/injection, schedule: Q01DX005 (ip), vehicle: saline with Tween-80
  T/C: 93 % of control

## C=C(CCC(C(=O)O)C1C(O)CC2(C)C3=C(CCC12C)C1(C)CCC(OC(C)=O)C(C)(C)C1CC3)C(C)C (stereo not given)
[3]
  T/C: 100 % of control
dose: 25.0 mg/kg/injection, schedule: Q01DX009 (ip), vehicle: saline with Tween-80
  T/C: 96 % of control
dose: 50.0 mg/kg/injection, schedule: Q01DX009 (ip), vehicle: saline with Tween-80
  T/C: 98 % of control

## O=C1CCCC2=C1c1cc3c(cc1CCN2)OCO3
dose: 25.0 mg/kg/injection, schedule: Q04DX002 (ip), vehicle: saline with Tween-80
  T/C: 101 % of control
dose: 50.0 mg/kg/injection, schedule: Q04DX002 (ip), vehicle: saline with Tween-80
  T/C: 96 % of control
dose: 100.0 mg/kg/injection, schedule: Q04DX002 (ip), vehicle: saline with Tween-80
  T/C: 94 % of control and 97 % of control

## COc1cc2c(cc1OC)C13CC[N+]4([O-])CC5=CCOC6CC(=O)N2C1C6C5CC34 (stereo not given)
dose: 15.0 mg/kg/injection, schedule: Q01DX005 (ip), vehicle: saline
  T/C: 107 % of control
dose: 30.0 mg/kg/injection, schedule: Q01DX005 (ip), vehicle: saline
  T/C: 108 % of control
dose: 60.0 mg/kg/injection, schedule: Q01DX005 (ip), vehicle: saline
  T/C: 106 % of control and 107 % of control
dose: 120.0 mg/kg/injection, schedule: Q01DX005 (ip), vehicle: saline
  T/C: 100 % of control
dose: 240.0 mg/kg/injection, schedule: Q01DX005 (ip), vehicle: saline
  T/C: 97 % of control

## [N-]=[N+]=Nc1ccc(SSCCC(=O)ON2C(=O)CCC2=O)cc1
dose: 50.0 mg/kg/injection, schedule: Q01DX005 (ip), vehicle: saline with Tween-80
  T/C: 118 % of control
dose: 100.0 mg/kg/injection, schedule: Q01DX005 (ip), vehicle: saline with Tween-80
  T/C: 116 % of control

From PubChem BioAssay AID330 (DTP/NCI, 2004)
